Where a SMILES comes first, the peptide text is derived from it. [ ]: non-standard residue; d: D form. Dmt = Cc1cc(O)cc(C)c1C[C@H](N)C(=O)O
Assays:
[1] = Scavenging of H2O2, luminol-induced chemiluminescence; type: biochemical; details: H2O2 4.4 nmol, 20 min, 37° C.
Method: Effect of SS-02 and SS-05 (Dmt-D-Arg-Phe Orn-NH2) on H2O2 as measured by luminol-induced chemiluminescence, 25 μM luminol and 0.7 IU horseradish peroxidase were added to the solution of H2O2 (4.4 nmol) and peptide, and chemiluminescence was monitored with a Chronolog Model 560 aggregometer (Havertown, Pa.) for 20 min at 37° C.

N2A cells [2] = assay: tBHP-induced LDH release; type: cell-based, murine; details: 100 μM tBHP
Method: (§1) FIG. 18A-18B. SS-31 reduced tBHP-induced LDH release in SH-SY5Y (A) and N2A (B) cells. Cells were treated with 100 μM tBHP alone, or with SS-31, for 24 h. *P<0.05, **P<0.01, ***P<0.001, compared to tBHP alone.
(§2) The loss of cell viability induced by 100 μM tBHP was accompanied by a significant increase in LDH release in SH-SY5Y (FIG. 18A) and N2A cell (FIG. 18B).

N2A cells [3] = assay: Mitochondrial function, MTT assay, after tBHP; type: cell-based, murine
Method: FIG. 23A-23B. SS-31 protected against tBHP-induced […]. (A) SS-31 protected mitochondrial viability in N2A cells treated with tBHP for 24 h. Mitochondrial viability was evaluated using the MTT assay (*P<0.01 compared to untreated cells, *P<0.05, P<0.01 compared to tBHP alone). (B) SS-31 protected mitochondrial viability in SH-SY5Y cells treated with tBHP for […] (*P<0.01 compared to untreated cells; **P<0.01 compared to tBHP alone).
Only viable mitochondria containing NADPH dehydrogenase activity are capable of cleaving MTT to the formazan. A 50 μM tBHP induced 50% loss of mitochondrial function in N2A cells (FIG. 23A, […]) and 30% loss of mitochondrial function in SH-SY5Y cells (FIG. 23B, P<0.01). […] Treatment of N2A cells with SS-31 alone had no effect on mitochondrial function.

G93A mice = assay: Lumbar spinal cord cell counts and immunostaining in ALS mice; type: in vivo
Excerpt: FIG. 27. Attenuation of motor neuron loss by SS-31 in the ventral horn of the lumbar spinal cord of G93A mice. Photomicrographs show cresyl violet stained sections through the ventral horn of the lumbar spinal cord from non-transgenic control (A) and G93A mice treated with vehicle (PBS) (B) or SS-31 (C) at 110 days of age. […] Values are mean±standard error of means.
FIG. 28A-28C. 4-hydroxynonenol immunostaining. Photomicrographs of representative sections through the ventral horn of the lumbar spinal cord of wild-type control (A), and G93A mice treated with vehicle (B) or SS-31 (C) show generalized reduction of 4-hydroxynonenal staining in neurons and neurophils in drug-treated mice.
FIG. 29A-29C. Nitrotyrosine immunostaining. Photomicrographs of representative sections through the ventral horn of the lumbar spinal cord of wild-type control (A), and G93A mice treated with vehicle (B) or SS-31 (C) show generalized reduction of nitrotyrosine staining in neurons and neurophils in drug-treated mice.

SH-SY5Y = assay: tBHP-induced LDH release; type: cell-based, human; details: 100 μM tBHP
Method: as §1, §2

Diabetic DBA/2 mice = assay: Marginal islet cell mass transplantation model; type: in vivo
Method: FIG. 35A-35C. Reversal of diabetes following transplantation of a marginal mass of syngeneic islets. Diabetic DBA/2 mice received 200 syngeneic islet cells under the right kidney capsule. Reversal of diabetes was defined as random nonfasting blood glucose levels below 200 mg/dl on 3-consecutive days. (A) Blood glucose levels of each individual control mouse following transplantation of 200 syngeneic islets. (B) Blood glucose levels of each individual SS-31 treated mouse following transplantation of 200 syngeneic islets. (C) Reversal of diabetes following transplantation of a marginal islet cell mass in SS-31 treatment vs. control. Number of normoglycemic mice by day 1, 3, 5, 10 and 14 post transplantation and two-tailed P-valued calculated using chi-squared bivariate analysis are shown.
In a marginal islet cell mass transplantation model, 0 of 8 recipients of islets isolated from pancreas harvested from the control mice had successful reversal of hyperglycemia (defined as three consecutive blood glucose levels<200 mg/dl), whereas sustained normoglycemia occurred in 5 of ten recipients of islets isolated from pancreas from the SS-31 treated donor mice (FIG. 35).

[4] = system: C57BL/6 mice subjected to MCAO; assay: Infarct size, swelling and cerebral blood flow after MCAO; type: in vivo; details: for reduction in infarct volume: 2 mg/kg i.p., 3 days after ischemia
Method: FIG. 32A-32F. Effect of SS-31 peptide on ischemia-induced infarct size and swelling in C57BL/6 mice. Shown are representative serial sections (1.2 mm apart) stained with Cresyl Violet from mice subjected to 30 min (A) and 20 min (B) MCAO and treated with vehicle (Veh) or SS-31 (2 mg/kg body weight) immediately after reperfusion, 6 h, 24 h, and 48 h.
To address whether SS-31-induced attenuation in GSH depletion is associated with neuroprotection, mice were subjected to 30 or 20 min MCAO and then treated with vehicle or SS-31 (2 mg/kg, i.p.) upon reperfusion) and at 6 h, 24 h, 48 h after MCAO. Infarct volumes and hemispheric swelling were determined at 3 days after ischemia.

Row | Molecule | luminol response (H2O2 scavenging) [1] | LDH release (N2A cells [2]; 0.1 and 1 nM of SS-31) | LDH release / tBHP-induced cytotoxicity (N2A cells [2]; 24 h) | tBHP-induced mitochondrial toxicity/dysfunction (MTT) (N2A cells [3]; tBHP 50-100 μM, 24 h) | mitochondrial function, peptide alone (N2A cells [3]; without tBHP) | cell loss in the lumbar spinal cord (stereological cell counts) (G93A mice; mouse, in vivo) | 3-nitrotyrosine immunostaining (protein nitration) (G93A mice; spinal cord) | 4-hydroxynonenenal immunostaining (lipid peroxidation) (G93A mice; spinal cord) | LDH release (SH-SY5Y; 0.1 and 1 nM of SS-31) | LDH release (SH-SY5Y; 24 h) | recipients with sustained normoglycemia (Diabetic DBA/2 mice; islets from SS-31 treated donor mice) | effect of discontinuation of SS-31 treatment on day 10 (Diabetic DBA/2 mice; mouse, in vivo) | time of reversal of hyperglycemia post-transplant (Diabetic DBA/2 mice; mouse, in vivo) | reduction in infarct volume ([4]; 20 min ischemia) | reduction in infarct volume ([4]; 30 min ischemia) | hemispheric swelling ([4]; both 30 and 20 min ischemic paradigms)
1 | 2′,6′-Dmt-Arg-Phe-Lys-NH2 [SS-02] | dose-dependently inhibited |  |  |  |  |  |  |  |  |  |  |  |  |  |  | 
2 | Cc1cc(O)cc(C)c1C[C@H](NC(=O)[C@H](N)CCCNC(=N)N)C(=O)N[C@@H](CCCCN)C(=O)N[C@@H](Cc1ccccc1)C(N)=O [SS-31, D-Arg-2′6′-Dmt-Lys-Phe-NH2] (H-[dR][Dmt]KF-NH2; N-terminus assumed) |  | reduced significantly | dose-dependent decrease | dose-dependently reduced | no effect | significantly ameliorated | markedly reduced | markedly reduced | reduced significantly | dose-dependent decrease | 5 of ten | did not result in return of hyperglycemia | ≤ 1 days | 30% | 24% | significantly attenuated
